Legend:
Assay type in all cases: cell-based, human
[1] = tested on: estrogen response element (ERE) construct; test: ERE luciferase assay (2 ERE-tk-Luc), genomic estrogen pathway in MCF7; conditions: for ERE luciferase activity: MCF7, p2 ERE-tk-Luc, 10 nmol/L E2 12 hours, p<0.01; for luciferase activity of the ERE construct: MCF7 cell line
Method: For checking on the genomic estrogen pathway, 10^5 MCF7 cells were first seeded into each well on a 24-well plate and cultured in IMEM with 2.5% charcoal-stripped FBS for 2 days. Then the cells were transfected as described above except that the estrogen response element (ERE) construct (2 ERE-tk-Luc; obtained from Katarine Pettersson, Karolinska Institute, Stockholm) replaced the pMIR-REPORT plasmid for 1 day. After stimulation with 10 nmol/L E2 for 12 hours, luciferase activity was measured as described above.

ERK1/2 = test: Estrogen induced ERK1/2 activation (phos-ERK Western blot) in MDA-MB-231; conditions: MDA-MB-231, 10 nmol/L E2 after estrogen starvation
Method: After mixed with gel-loading buffer and boiled for 5 minutes, the protein samples were separated with 10% SDS-PAGE and transferred to a PVDF membrane (Millipore, Billerica, Mass.). The blots were probed with specific first antibodies and appropriate second antibodies. The blots were visualized with enhanced chemiluminescence (ECL) reagents (Pierce, Minneapolis, Minn.) and documented with a Fluor Chem FC2 (Alpha Innotech, Santa Clara, Calif.) image system. Gel density was quantified with Quantity One and expressed as a relative value against β-actin. The anti-ERK1/2 (#9102) and antipERK1/2 (#9106) were purchased from Cell Signaling Technology (Danvers, Mass.). Anti-ER-α66 (RB-9016) was obtained from Thermoscientific (Rockford, Ill.). Anti-ER-α36 antibody was an affinity-purified rabbit polyclonal anti-ER-36 antibody generated as a custom service from Pacific Immunology Corp (Ramona, Calif.). The ER-α36 antibody was raised against a synthetic peptide antigen corresponding to the unique C-terminal 20 aa of ER-α36.
ER-α36 is mainly localized on the plasma membrane and mediates the non-genomic estrogen pathways (Wang et al., 2005, Biochem. Biophys. Res. Commun. 336:1023-7, Wang et al., 2006, Proc. Natl. Acad. Sci. U.S.A., 103:9063-8). We reasoned that the inhibition on ER-α36 expression by let-7 family miRNAs might dampen the non-genomic estrogen pathway. […]

MCF7 cells = test: Annexin-V binding assay for apoptosis in MCF7
Method: Annexin-V binding assay for apoptosis. […] The staining followed the protocol of FITC Annexin V Apoptosis Detection Kit I (Cat #556547, BD Biosciences). Cell populations were analyzed with a BD FACSAria™ flow cytometer. Approximately 20,000 cells were counted for each sample.

ER-α36 mRNA = test: Real-time PCR of ER-α36 mRNA after transfection; conditions: for ER-α36 mRNA expression: MDA-MB-231, mimics, vs negative control miRNA; for ER-α36 mRNA level: MDA-MB-231, two days post transfection
Method: To assess the expression levels of ER-α66 and ER-α36 with real-time PCR, total RNA was extracted using Trizol reagent (Invitrogen, Carsbad, Calif.). One microgram RNA was used for cDNA synthesis with the SuperScript III first-strand synthesis system (Invitrogen, Carsbad, Calif.). After 10 dilution, 4 μL cDNA was used in 20 μL reaction volume, which includes 4 μL of 1.5 μmol/L primers, 2 μL of 2 μmol/L probes, and 10 μL TaqMan universal PCR master mix with ampErase UNG (Applied Biosystems). The reaction condition was the same as miRNA real-time PCR. β-Actin was the internal control (Applied Biosystems, Foster City, Calif.). The primers for ER-α66 are: 5′-GCGGCCACGGACCAT (forward) (SEQ ID NO:20); 5′-[…] (SEQ ID NO:21) (reverse); 5′-FAM-[…]-TAMRA-3′ (probe) (SEQ ID NO:22). The primers for ER-α36 are: 5′-[…] (forward) (SEQ ID NO:23); 5′-[…] (reverse) (SEQ ID NO:24); 5′-[…] TAMRA-3′ (probe) (SEQ ID NO:43).
Let-7 miRNA or negative control #1 miRNA of 60 nmol/L (Ambion, Austin, Tex.) was transfected into cells with the siPORT NeoFX reagent (Ambion, Austin, Tex.) following the manufacturer's protocol.

[2] = Real-time PCR quantification of mature let-7 after mimic transfection in MCF7; conditions: for rank of forced expression throughout the time course: MCF7, relative quantity against RNU48
Method: Quantitative real-time PCR. For miRNA quantification in FFPE tissues, total RNA was extracted as described above; for miRNA quantification in cell lines, total RNA was isolated using mirVana miRNA Isolation Kit (Ambion Inc.). cDNA was synthesized by using 100 ng total RNA in a reaction volume of 15 μL, by following the protocol of Taqman miRNA Reverse Transcription Kit (Applied Biosystems). After 15 times dilution, 9 μL cDNA was used for real-time PCR in a 20 μL reaction volume, including 10 μL of master mix and 1 μL Taqman probe (Applied Biosystems). This reaction system only detects mature miRNAs not pre-miRNAs. The level of each miRNA was expressed following the 2^−ΔΔCt or […] method using the small nuclear RNA, RNU48, as the internal reference.
For FFPE tissues, there was the same repeat number as in microarray; for cell lines, there were three biological repeats. Each sample had three technical repeats on the PCR plate. Real-time PCR was performed on an Applied Biosystems 7900HT real-time PCR instrument. PCR was initiated by two holds of 52° C. 2 min and 94° C. 10 min each, followed by 40 cycles of 15 s at 95° C. and 1 min at 60° C.

[3] = MCF7, one day post transfection, 60 nmol/L each

| Substance | ERE luciferase activity [1] | luciferase activity of the ERE construct [1] | estrogen induced activation of the ERK1/2 (nongenomic estrogen pathway) (ERK1/2) | apoptotic rate (MCF7 cells; MCF7, after 6 days) | apoptotic rate (MCF7 cells; MCF7, three days post-transfection) | ER-α36 mRNA expression (ER-α36 mRNA) | ER-α36 mRNA level (ER-α36 mRNA) | expression of let-7b relative to let-7a and let-7i ([2]; MCF7, after 2 days) | mature let-7b level relative to let-7a ([2]; MCF7, after 6 days) | mature let-7b level relative to let-7a [2, 3] | mature let-7b level relative to let-7i [2, 3] | rank of forced expression throughout the time course [2] | effect on apoptosis (MCF7 cells; MCF7, after either 3 days or 6 days) |
| --- | --- | --- | --- | --- | --- | --- | --- | --- | --- | --- | --- | --- | --- |
| let-7b: let-7b miRNA (mimic), 3′-UUGGUGUGUUGGAUGAUGGAGU-5′ (SEQ ID NO:8) (chemistry not given here; listed 3' to 5') | about 40 % of negative control | inhibit the luciferase activity of the ERE construct | significantly inhibited | 28.6% | 7% | 30 % of the controls | inhibited | 2 | ~10 | ~20 | ~6 | highest expression | – |
| let-7i: let-7i miRNA (mimic), 3′-UUGUCGUGUUUGAUGAUGGAGU-5′ (SEQ ID NO:14) (chemistry not given here; listed 3' to 5') | about 60 % of negative control | inhibit the luciferase activity of the ERE construct | significantly inhibited | – | – | 30 % of the controls | inhibited | – | – | – | – | in the middle | not significant |
